{"source": "patent US11053253B2", "about": "“Macrocyclic compounds for treatment of medical disorders” (Achillion Pharmaceuticals, Inc., priority 2017, dated 2021)"}
{"molecular_target": "Human Factor D (Homo sapiens (Human), UniProt P00746)", "sequence (P00746 26-253)": "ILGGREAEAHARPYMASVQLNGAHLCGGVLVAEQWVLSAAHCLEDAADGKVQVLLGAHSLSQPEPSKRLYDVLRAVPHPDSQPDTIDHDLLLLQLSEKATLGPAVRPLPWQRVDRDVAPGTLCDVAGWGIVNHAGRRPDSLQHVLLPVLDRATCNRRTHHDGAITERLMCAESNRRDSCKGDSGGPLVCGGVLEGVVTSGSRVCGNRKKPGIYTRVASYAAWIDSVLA", "test": "Human Factor D Assay", "format": "biochemical", "details": "Human Factor D 80 nM, substrate Z-L-Lys-SBzl, DTNB, A405; read-out: IC50 (Stars)", "procedure": "Example 2. Human Factor D Assay\nHuman Factor D (purified from human serum, Complement Technology, Inc.) at 80 nM final concentration is incubated with test compound at various concentrations for 5 min at room temperature in 50 mM Tris, 1M NaCl, pH 7.5. A synthetic substrate Z-L-Lys-SBzl and DTNB (Ellman's reagent) are added to final concentrations of 100 µM each. Absorbance at 405 nm (A405) is recorded at 30 second intervals for 30 minutes using a microplate spectrophotometer. IC50 values are calculated by nonlinear regression of Complement Factor D reaction rates as a function of test compound concentration.", "units": {"IC50": "nM"}}
{"compound": "CC(=O)c1nn2c3c(cc(-c4cnc(C)nc4)cc13)CCCCCCCCOC[C@@]13C[C@@H](C(=O)Nc4nc(Br)ccc4C)N(C(=O)C2)[C@@H]1C3", "note": "[Compound T-23, (41R,43S,45S)-13-acetyl-N-(6-bromo-3-methylpyridin-2-yl)-15-(2-methylpyrimidin-5-yl)-3-oxo-11H-6-oxa-42-aza-1(1,7)-indazola-4(2,5)-bicyclo[3.1.0]hexanacyclotetradecaphane-43-carboxamide]", "IC50": "< 1000"}
{"compound": "CC(=O)c1nn2c3c(cc(-c4cnc(C)nc4)cc13)CCCCCCCCCOC[C@@]13C[C@@H](C(=O)Nc4nc(Br)ccc4C)N(C(=O)C2)[C@@H]1C3", "note": "[Compound T-24, (41R,43S,45S)-13-acetyl-N-(6-bromo-3-methylpyridin-2-yl)-15-(2-methylpyrimidin-5-yl)-3-oxo-11H-6-oxa-42-aza-1(1,7)-indazola-4(2,5)-bicyclo[3.1.0]hexanacyclopentadecaphane-43-carboxamide]", "IC50": "< 1000"}
{"compound": "CC(=O)c1nn(CC(=O)N2[C@H]3C[C@]4(C[C@@H]24)Cn2cc(nn2)COCc2ccc(Br)nc2NC3=O)c2cnccc12", "note": "[Compound T-27, (31R,33S,35R,Z)-32-(2-(3-acetyl-1H-pyrazolo[3,4-c]pyridin-1-yl)acetyl)-66-bromo-11H-8-oxa-32,5-diaza-6(2,3)-pyridina-1(1,4)-triazola-3(5,3)-bicyclo[3.1.0]hexanacyclononaphan-4-one]", "IC50": "< 1000"}
{"compound": "CC(=O)c1nn2c3c(cc(-c4cnc(C)nc4)cc13)CCCCCCC=CCc1ccc(Br)nc1NC(=O)[C@@H]1C[C@@]3(C)C[C@H]3N1C(=O)C2", "note": "[Compound T-37]", "IC50": "< 1000"}
{"compound": "CC(=O)c1nn(CC(=O)N2[C@H]3C[C@@]4(COCCCCCc5ccc(Br)nc5NC3=O)C[C@@H]24)c2ccc(-c3cnc(C)nc3)cc12", "note": "[Compound T-38]", "IC50": "< 1000"}
{"compound": "CC(=O)c1nn(CC(=O)N2[C@H]3C[C@@]4(COCCCCCCc5ccc(Br)nc5NC3=O)C[C@@H]24)c2ccc(-c3cnc(C)nc3)cc12", "note": "[Compound T-39]", "IC50": "< 1000"}
{"compound": "CC(=O)c1nn(CC(=O)N2[C@H]3C[C@@]4(COCCCCCCCc5ccc(Br)nc5NC3=O)C[C@@H]24)c2ccc(-c3cnc(C)nc3)cc12", "note": "[Compound T-40]", "IC50": "< 1000"}
{"compound": "CC(=O)c1nn(CC(=O)N2[C@H]3C[C@@]4(COCCCCCCCc5ccc(Br)nc5NC3=O)C[C@@H]24)c2cnc(-c3cnc(C)nc3)cc12", "note": "[Compound T-41]", "IC50": "< 1000"}
{"compound": "CC(=O)c1nn(CC(=O)N2[C@H]3C[C@@]4(COCCCCCCc5ccc(Br)nc5NC3=O)C[C@@H]24)c2cnc(-c3cnc(C)nc3)cc12", "note": "[Compound T-42]", "IC50": "< 1000"}
{"compound": "CC(=O)c1nn(CC(=O)N2[C@H]3C[C@@]4(C=CCCCCCCc5ccc(Br)nc5NC3=O)C[C@@H]24)c2cnc(-c3cnc(C)nc3)cc12", "note": "[Compound T-43]", "IC50": "< 1000"}
{"compound": "CC(=O)c1nn(CC(=O)N2[C@H]3C[C@@]4(COC/C=C/COCc5ccc(Br)nc5NC3=O)C[C@@H]24)c2cnc(-c3cnc(C)nc3)cc12", "note": "[Compound T-44]", "IC50": "< 1000"}
{"compound": "CC(=O)c1nn(CC(=O)N2[C@H]3C[C@@]4(COC/C=C\\COCc5ccc(Br)nc5NC3=O)C[C@@H]24)c2cnc(-c3cnc(C)nc3)cc12", "note": "[Compound T-45]", "IC50": "< 1000"}
{"compound": "CC(=O)c1nn(CC(=O)N2[C@H]3C[C@@]4(CCCCCCCCc5ccc(Br)nc5NC3=O)C[C@@H]24)c2cnc(-c3cnc(C)nc3)cc12", "note": "[Compound T-46]", "IC50": "< 1000"}
{"compound": "CC(=O)c1nn(CC(=O)N2[C@H]3C[C@@]4(C=CCCC5=NN=C(Cc6ccc(Br)nc6NC3=O)O5)C[C@@H]24)c2cnc(-c3cnc(C)nc3)cc12", "note": "[Compound T-47]", "IC50": "< 1000"}
{"compound": "CC(=O)c1nn(CC(=O)N2[C@H]3C[C@@]4(C=CCCCCCCc5ccc(Br)nc5NC3=O)C[C@@H]24)c2ccc(-c3cnc(C)nc3)cc12", "note": "[Compound T-48]", "IC50": "< 1000"}
{"compound": "CC(=O)c1nn2c3c(cc(-c4cnc(C)nc4)cc13)CCCCCCC=Cc1cn(nn1)C[C@@]13C[C@@H](C(=O)Nc4nc(Br)ccc4C)N(C(=O)C2)[C@@H]1C3", "note": "[Compound T-49]", "IC50": "< 1000"}
{"compound": "CC(=O)c1nn2c3c(cc(-c4cnc(C)nc4)cc13)C=CCCCCC(=O)NC[C@@]13C[C@@H](C(=O)Nc4nc(C(F)(F)F)ccc4C)N(C(=O)C2)[C@@H]1C3", "note": "[Compound T-51]", "IC50": "< 1000"}
{"compound": "CC(=O)c1nn2c3c(cc(-c4cnc(C)nc4)cc13)CCCCCCCCc1cn(nn1)C[C@@]13C[C@@H](C(=O)Nc4nc(Br)ccc4C)N(C(=O)C2)[C@@H]1C3", "note": "[Compound T-53]", "IC50": "< 1000"}
{"compound": "CC(=O)c1nn(CC(=O)N2[C@H]3C[C@]4(C[C@@H]24)CN(C)CCCCC=CCc2ccc(Br)nc2NC3=O)c2cnc(-c3cnc(C)nc3)cc12", "note": "[Compound T-56]", "IC50": "< 1000"}
{"compound": "CC(=O)c1nn(CC(=O)N2[C@H]3C[C@]4(C[C@@H]24)CN(C)CCCC=CCc2ccc(Br)nc2NC3=O)c2cnc(-c3cnc(C)nc3)cc12", "note": "[Compound T-57]", "IC50": "< 1000"}
{"compound": "CC(=O)c1nn2c3c(cc(-c4cnc(C)nc4)cc13)C=CCCCCCN(C)C[C@@]13C[C@@H](C(=O)Nc4nc(Br)ccc4C)N(C(=O)C2)[C@@H]1C3", "note": "[Compound T-58]", "IC50": "< 1000"}
{"compound": "CC(=O)c1nn(CC(=O)N2[C@H]3C[C@@]4(C=CCCCCCN(C)Cc5ccc(Br)nc5NC3=O)C[C@@H]24)c2c(CF)cc(-c3cnc(C)nc3)cc12", "note": "[Compound T-59]", "IC50": "< 1000"}
{"compound": "CC(=O)c1nn(CC(=O)N2[C@H]3C[C@]4(C[C@@H]24)CN(C)CCCCC=CCc2ccc(Br)nc2NC3=O)c2c(C)cc(-c3cnc(C)nc3)cc12", "note": "[Compound T-60]", "IC50": "< 1000"}
{"compound": "CC(=O)c1nn(CC(=O)N2[C@H]3C[C@]4(C[C@@H]24)CN(C)CCCCC=CCc2ccc(Br)nc2NC3=O)c2c(CF)cc(-c3cnc(C)nc3)cc12", "note": "[Compound T-62]", "IC50": "< 1000"}
{"compound": "CC(=O)c1nn(CC(=O)N2[C@H]3C[C@]4(C[C@@H]24)CN(C)CCCCC=CCc2ccc(Br)nc2NC3=O)c2ccc(-c3cnc(C)nc3)cc12", "note": "[Compound T-64]", "IC50": "< 1000"}
{"compound": "CC(=O)c1nn(CC(=O)N2[C@H]3C[C@]4(C[C@@H]24)CN(C)CCCC=CCc2ccc(Br)nc2NC3=O)c2ccc(-c3cnc(C)nc3)cc12", "note": "[Compound T-65]", "IC50": "< 1000"}
{"compound": "C=C1COCc2ccc(Br)nc2NC(=O)[C@@H]2C[C@]3(C[C@H]3N2C(=O)Cn2nc(C(C)=O)c3cc(-c4cnc(C)nc4)ccc32)Cn2cc1cn2", "note": "[Compound T-66]", "IC50": "< 1000"}
{"compound": "CC(=O)c1nn(CC(=O)N2[C@H]3C[C@]4(C[C@@H]24)Cn2ccc(n2)/C=C\\COCc2ccc(Br)nc2NC3=O)c2ccc(-c3cnc(C)nc3)cc12", "note": "[Compound T-69]", "IC50": "< 1000"}
{"compound": "CC(=O)c1nn(CC(=O)N2[C@H]3C[C@]4(C[C@@H]24)Cn2ccc(n2)/C=C\\COCc2ccc(Br)nc2NC3=O)c2cnc(-c3cnc(C)nc3)cc12", "note": "[Compound T-70]", "IC50": "< 1000"}
{"compound": "CC(=O)c1nn(CC(=O)N2[C@H]3C[C@]4(C[C@@H]24)CN(C)CCCCCCCc2ccc(Br)nc2NC3=O)c2c(C)cc(-c3cnc(C)nc3)cc12", "note": "[Compound T-71]", "IC50": "< 1000"}
{"compound": "CC(=O)c1nn(CC(=O)N2[C@H]3C[C@]4(C[C@@H]24)CN(C)CCCCCCc2ccc(Br)nc2NC3=O)c2c(C)cc(-c3cnc(C)nc3)cc12", "note": "[Compound T-72]", "IC50": "< 1000"}
{"compound": "Cc1ncc(-c2cc(CF)c3c(c2)c(C=O)nn3CC(=O)N2[C@H]3C[C@]4(C[C@@H]24)CN(C)CCCCCCCc2ccc(Br)nc2NC3=O)cn1", "note": "[Compound T-74]", "IC50": "< 1000"}
{"compound": "CC(=O)c1nn(CC(=O)N2[C@H]3C[C@]4(C[C@@H]24)CN(C)CCCCCCCc2ccc(Br)nc2NC3=O)c2cnc(-c3cnc(C)nc3)cc12", "note": "[Compound T-75]", "IC50": "< 1000"}
{"compound": "CC(=O)c1nn(CC(=O)N2[C@H]3C[C@]4(C[C@@H]24)CN(C)CCCCCCc2ccc(Br)nc2NC3=O)c2cnc(-c3cnc(C)nc3)cc12", "note": "[Compound T-76]", "IC50": "< 1000"}
{"compound": "CC(=O)c1nn(CC(=O)N2[C@H]3C[C@@]4(COCC=CCOCc5ccc(Br)nc5NC3=O)C[C@@H]24)c2c(CF)cc(-c3cnc(C)nc3)cc12", "note": "[Compound T-77]", "IC50": "< 1000"}
{"compound": "CC(=O)c1nn(CC(=O)N2[C@H]3C[C@@]4(COCCCCOCc5ccc(Br)nc5NC3=O)C[C@@H]24)c2c(CF)cc(-c3cnc(C)nc3)cc12", "note": "[Compound T-78]", "IC50": "< 1000"}
{"compound": "CC(=O)c1nn2c3cc(c(-c4cnc(C)nc4)cc13)OCCC/C=C/COC[C@@]13C[C@@H](C(=O)Nc4nc(Br)ccc4C)N(C(=O)C2)[C@@H]1C3", "note": "[Compound T-79]", "IC50": "< 1000"}
{"compound": "CC(=O)c1nn2c3cc(c(-c4cnc(C)nc4)cc13)OCCC/C=C\\COC[C@@]13C[C@@H](C(=O)Nc4nc(Br)ccc4C)N(C(=O)C2)[C@@H]1C3", "note": "[Compound T-80]", "IC50": "< 1000"}
{"compound": "CC(=O)c1nn2c3c(cc(-c4cnc(C)nc4)cc13)CC=CCCCC(=O)NC[C@@]13C[C@@H](C(=O)NCc4cccc(Cl)c4F)N(C(=O)C2)[C@@H]1C3", "note": "[Compound T-82]", "IC50": "< 1000"}
{"compound": "CC(=O)c1nn2c3c(cc(-c4cnc(C)nc4)cc13)CC=CCCCC(=O)NC[C@@]13C[C@@H](C(=O)Nc4nc(Br)c(F)cc4C)N(C(=O)C2)[C@@H]1C3", "note": "[Compound T-84]", "IC50": "< 1000"}
{"compound": "CC(=O)c1nn2c3c(cc(-c4cnc(C)nc4)cc13)CCCCCCC(=O)NC[C@@]13C[C@@H](C(=O)Nc4nc(Br)c(F)cc4C)N(C(=O)C2)[C@@H]1C3", "note": "[Compound T-85]", "IC50": "< 1000"}
{"compound": "CC(=O)c1nn2c3c(cc(-c4cnc(C)nc4)cc13)CCCCCCC(=O)NC[C@@]13C[C@@H](C(=O)NCc4cccc(Cl)c4F)N(C(=O)C2)[C@@H]1C3", "note": "[Compound T-86]", "IC50": "< 1000"}
{"compound": "CC(=O)c1nn(CC(=O)N2[C@H]3C[C@@]4(CCCCCCCOCc5ccc(Br)nc5NC3=O)C[C@@H]24)c2c(CF)cc(-c3cnc(C)nc3)cc12", "note": "[Compound T-87]", "IC50": "< 1000"}
{"compound": "CC(=O)c1nn(CC(=O)N2[C@H]3C[C@@]4(CCCCCCCOCc5ccc(Br)nc5NC3=O)C[C@@H]24)c2cnc(-c3cnc(C)nc3)cc12", "note": "[Compound T-88]", "IC50": "< 1000"}
{"compound": "CC(=O)c1nn(CC(=O)N2[C@H]3C[C@@]4(CCCC=CCOCc5ccc(Br)nc5NC3=O)C[C@@H]24)c2c(CF)cc(-c3cnc(C)nc3)cc12", "note": "[Compound T-89]", "IC50": "< 1000"}
